Square brackets hold non-standard residues; d marks the D form. Ends that are not written are not given here. pY = N[C@@H](Cc1ccc(OP(=O)(O)O)cc1)C(=O)O

Assay [1] concerns the target T1, Stat3 (Mus musculus, UniProt P42227). More on the design: nuclear extracts (prepared from epidermal growth factor (EGF)-stimulated fibroblasts); endogenous in cells; host or cells: NIH3T3 fibroblasts stimulated with EGF. Conditions: cited from earlier work.
Assay [2] concerns Stat1:Stat1 and Stat3:Stat3 dimers. Kind of assay: Dissociation-reassociation analysis of pooled Sf-9 lysates by EMSA. Type of assay: biochemical. Conditions: 30 min pre-treatment, 30-300 μM PY*LKTK or 3-1000 μM ISS 610, hSIE probe. The procedure: Cytosolic extract preparation and luciferase assays. Cytosolic extract preparation from fibroblasts and luciferase assays were previously described (Turkson, J. et al. (1998); Turkson, J. et al. (1999)). Briefly, after two washes with PBS and equilibration for 5 min with 0.5 ml PBS-0.5 mM EDTA, cells were scraped off the dishes and the cell pellet was obtained by centrifugation (4,500×g, 2 min, 4° C.). Cells were resuspended in 0.4 ml of low-salt HEPES buffer (10 mM HEPES (pH 7.8), 10 mM KCl, 0.1 mM EGTA, 0.1 mM EDTA, 1 mM phenylmethylsulfonyl fluoride, and 1 mM dithiothreitol) for 15 min, lysed by the addition of 20 μl of 10% Nonidet P-40 (NP-40), and centrifuged (10,000×g, 30 s, 4° C.) to obtain the cytosolic supernatant, which was used for luciferase assays (Promega) measured with a luminometer. Cytosolic lysates containing activated Stat3 or Stat1 that were used for dissociation-reassociation analysis were prepared from baculovirus-infected Sf-9 insect cells as previously described (Turkson, J. et al. (2001); Zhang, Y. et al. (2000)). Briefly, cultured dishes of Sf-9 cells were washed twice with ice-cold 1×PBS and then PBS containing 1 mM sodium orthovanadate.
Background: Mobility shift assays separate free from complexed probe on a gel.

Another assay concerns NIH3T3. Description: Apo-BrdU labeling and flow cytometry for apoptotic cells. Type of assay: cell-based, mouse. Conditions: NIH3T3, 1 mM, 48 h, flow cytometry. The procedure: (§1) Cell proliferation, soft-agar growth and Apo-BrdU labeling studies. Proliferating fibroblasts and human tumor cells were counted by phase-contrast microscopy for viable cells (using tyrpan blue exclusion). Colony formation assays in six-well dishes and quantification of colonies by iodonitrotetrazolium violet have been previously described (Turkson, J. et al. (1999)). Treatment of cells with inhibitors was initiated 1 day after seeding cells by adding 75 μl of medium with or without inhibitor, and repeated every two to three days. Apoptosis was measured by Apo-BrdU labeling and following the supplier's (PharMingen; San Diego, Calif.) instructions.
(§2) Because one of the functions of Stat3 is to protect transformed or tumor cells from apoptosis (Catlett-Falcone, R. et al. (1999b); Epling-Burnette, P. K. et al. (2001); Grandis, J. R. et al. (2000); Bowman, T. et al. (2000b); Bromberg, J. F. et al. (1999)), the ability of peptidomimetics of the invention (and PY*LKTK-MTS for comparison) (SEQ ID NO. 1) to induce apoptosis in Stat3-dependent transformed fibroblasts was evaluated. Viral Src-transformed NIH3T3/v-Src fibroblasts were treated with or without compounds for 48 h. Treated cells were then labeled with Apo-BrdU (PharMingen; San Diego, Calif.) for detection of DNA breaks.
On the technique in general: Incorporation of labelled thymidine or its analogues reports DNA synthesis.

For assay [3], the system named is NIH3T3/v-Src. Described as above. Type of assay: cell-based, mouse. Conditions: 48 h. The procedure:
as §1, §2

Assay [4] relates to NIH3T3/v-Src. Type of assay: cell-based, mouse. Conditions: 1 mM, four days. The procedure: as §1
(§3) Stat3 has an essential role in cell proliferation, and constitutively-active Stat3 is required for growth of transformed and tumor cells that harbor aberrant Stat3 signaling. Studies were performed to determine the effects of the peptidomimetic-mediated inhibition of Stat3 on cell proliferation using trypan blue exclusion for viable cell counts.

Another assay deals with MDA-MB-231. Type of assay: cell-based, human. Conditions: 1 mM, MDA-MB-231, four days. The procedure: as §1, §3
A further assay deals with MDA-MB-435. Type of assay: cell-based, human. Conditions: 1 mM, MDA-MB-435, four days. The procedure: as §1, §3
The target of assay [5] is T1, Stat3. On the set-up: nuclear extracts prepared from v-Src-transformed NIH3T3/v-Src; endogenous in cells; host or cells: NIH3T3/v-Src. Conditions: Turkson J. et al. (2001); cited from earlier work.

T1 sequence (P42227 whole entry): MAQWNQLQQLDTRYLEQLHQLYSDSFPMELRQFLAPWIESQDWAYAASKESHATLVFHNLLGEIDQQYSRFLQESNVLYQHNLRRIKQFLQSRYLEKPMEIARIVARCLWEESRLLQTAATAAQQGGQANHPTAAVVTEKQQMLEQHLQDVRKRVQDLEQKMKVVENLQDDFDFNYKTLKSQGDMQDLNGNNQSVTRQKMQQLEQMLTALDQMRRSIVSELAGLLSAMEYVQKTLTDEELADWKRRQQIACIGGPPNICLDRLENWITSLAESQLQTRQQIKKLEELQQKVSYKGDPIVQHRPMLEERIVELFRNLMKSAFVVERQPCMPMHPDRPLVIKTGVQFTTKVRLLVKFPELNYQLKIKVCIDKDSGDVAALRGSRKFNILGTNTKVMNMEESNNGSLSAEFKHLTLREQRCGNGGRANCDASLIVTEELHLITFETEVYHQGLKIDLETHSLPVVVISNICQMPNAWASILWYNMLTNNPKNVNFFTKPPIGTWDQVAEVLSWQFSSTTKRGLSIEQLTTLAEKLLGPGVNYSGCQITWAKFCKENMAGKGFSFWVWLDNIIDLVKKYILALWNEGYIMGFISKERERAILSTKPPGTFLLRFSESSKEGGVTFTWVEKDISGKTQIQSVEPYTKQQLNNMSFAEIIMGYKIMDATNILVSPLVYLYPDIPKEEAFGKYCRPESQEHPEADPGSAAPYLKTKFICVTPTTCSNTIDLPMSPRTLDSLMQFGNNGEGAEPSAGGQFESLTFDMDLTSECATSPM

On to “PY*LKTK (P[pY]LKTK) [reference compound]”, for which the “disruption of Stat3:Stat3 dimer formation and Stat3 DNA-binding activity, as reported earlier” value with Stat3 [1] was “disrupt Stat3:Stat3 dimer formation”. For the same substance, the “effect on STAT dimers in mixed Stat1:Stat1 and Stat3:Stat3 lysates” value in assay [2] was “appearance of an additional intermediate band representing Stat1:Stat3 heterodimers”.

“PY*LKTK-AAVLLPVLLAAP (P[pY]LKTKAAVLLPVLLAAP) [PY*LKTK-MTS]”: the “percent of apoptotic cells” value in the assay on NIH3T3 worked out at 3.7%; in the assay on NIH3T3/v-Src [3] (NIH3T3/v-Src, 1 mM, Apo-BrdU, flow cytometry) it was 27.6%. Moreover, the “incorporated BrdUTP compared to controls (in words)” value in the assay on NIH3T3/v-Src [3] (Src-transformed fibroblasts) was “dramatic increases in incorporated BrdUTP”. Also, the cell proliferation entry in the assay on NIH3T3/v-Src [4], with MDA-MB-231 and in the assay on MDA-MB-435 was “significantly suppresses proliferation” throughout. For the same substance, the “constitutive Stat3 activation in Src-transformed fibroblasts” value with Stat3 [5] is recorded as “inhibits constitutive Stat3 activation”.

These data come from patent US7842671B1, “Peptidomimetic inhibitors of STAT activity and uses thereof” (University of South Florida, priority 2003, dated 2010).
